Source: patent publication US20240141356A1, “Driving Axon Regeneration by Activating STAT1 Signaling and cGAS-STING Pathway” (The Hong Kong University of Science and Technology, priority 2022, published 2024)

How the values were obtained:
IFNγ = assay: Ex-vivo model of sciatic nerve injury, IFNγ immunostaining; parameters: species or system mouse; settings: injured sciatic nerve segments in DMEM, anisomycin 200 μg/ml, 3-hour incubation
Procedure: For the ex-vivo model of sciatic nerve injury, the nerves were crushed and then cut into about 3 mm to about 5 mm segments. The injured nerve segments were incubated in DMEM supplemented with about 10% FBS and about 1% penicillin/streptomycin. Translation was inhibited by 200 μg/ml anisomycin. After about a 3-hour incubation, nerve segments were fixed by 4% PFA for about 2 hours and then proceeded to the frozen section.
Mice were first perfused by PBS and then 4% PFA for 5 minutes for fixation. Respective tissues were dissected and then post-fixed in 4% PFA for two hours. Fixed tissues were incubated in 30% sucrose overnight and then embedded in an optimum cutting temperature (OCT) compound. Frozen sections were then permeabilized with 0.1% Triton X-100, blocked by 4% normal goat serum for 30 min, and incubated by respective primary antibodies overnight. After PBS washing three times, sections were incubated by secondary antibodies for two hours and washed three times again. Images were taken by Leica SP8 confocal microscope.

[1] = system: retinal ganglion cells (RGCs); assay: Optic nerve crush, number of regenerating axons (CTB labeling); format: in vivo, mouse
embryonic DRG neurons = assay: Embryonic DRG culture in compartmented chamber, in-vitro axotomy; format: cell-based, mouse; settings: ADU-S100 10 μM added to the axonal or the soma compartment
Procedure: To culture embryonic DRG in the compartmented chamber, embryonic DRGs were dissected from E13.5 pregnant C57BL/6 mouse embryos in Leibovitz's L-15 medium on ice. Tissues were dissociated in TrypLE for 15 minutes at 37° C. Dissociated neurons were plated in the microfluidic chamber on cleaned glass coverslips pre-coated with poly-D-lysine and laminin in the density of 100000 cells per chamber with 5 μL culture medium supplemented with GlutaMAX (2 mM), B27 (20 ml/l), penicillin-Streptomycin, NGF ([…]) and 5-fluoro-2′-deoxyuridine (10 μM) into the somal compartment. After one hour, 200 μL medium was added into both the somal and axonal compartment. To perform in-vitro axotomy, axons in the axonal chamber were removed by a glass pipette connected to an aspirator. Then, a 150 μL medium was quickly added into the empty compartment. After 2 days in the […], cells were fixed by 4% PFA and then stained by Tuj 1 antibody. The lengths and/or number of longest axons in each chamber were quantified by ImageJ.

DRG neurons = assay: Adult DRG neuron primary culture, length of the longest axon (compound test); format: cell-based, mouse; settings: cGAMP 10 μM; for axon elongation / axon growth in DRG culture: WT DRG neurons, DMXAA 10 μM, C-176 1 μM, H-151 1 μM; for effect on the growth effect induced by cGAMP: DRG culture, DCPIB 100 nM, CBX 10 μM
Procedure: (§1) In some embodiments, in-vitro screening models of axon regeneration are based on DRG electroporation and replating culture. Adult DRGs were cultured and replated according to the protocol described previously (Weng et al., 2018). In certain embodiments, adult mice were euthanized, and L4-L6 DRGs were dissected from both sides. DRGs were dissociated in 0.5% collagenase for 1.5 hours. Then the medium containing collagenase was replaced by Neurobasal A, and DRGs were gently pipetted 20 times for dissociation. For electroporation, dissociated DRG neurons were transfected by Mouse Neuron Nucleofector Kit in Lonza Nucleofector system using program G103. 6 DRGs and 5 μg plasmid were used for each reaction. Neurobasal-A with 10% B27 supplement was used as the culture medium for DRG neurons.
(§2) For quantification of neurite lengths in DRG culture. Cells were fixed and stained with TurboGFP (phosphatase shRNA library screening) or Tuj 1. The lengths of the longest axons in each DRG neuron were quantified by the NeuronJ plugin in ImageJ. For phosphatase screening, 5-10 neurons were quantified for each shRNA. For the compound test, 10-20 cells from each mouse and 3 mice were quantified in each group.

adult DRG neurons = assay: DRG replating assay, phosphatase inhibitor screening; format: cell-based, mouse; settings: replated adult DRG neurons, inhibitors 100 nM
Procedure: as §1
The culture was replated three days after electroporation. The DRG neurons in the primary culture were gently flushed by 20-30 pipetting to be resuspended in the culture medium. […] The lengths of the longest axons in each DRG neuron were quantified by the NeuronJ plugin in ImageJ. […]
as §2, with “Cells were fixed and stained with TurboGFP (phosphatase shRNA library screening) or Tuj 1.” left out

p-STAT1 = p-STAT1 in RGCs/retina after optic nerve injury (immunostaining, western blot); format: in vivo, mouse; settings: for p-STAT1 accumulation in the nuclei of RGCs: WT, IFNγ administration
p-STAT3 = p-STAT3 in RGCs after optic nerve injury (immunostaining); format: in vivo, mouse; settings: Ptpn2 KO group with IFNγ, 1 dpc
[2] = system: retinal ganglion cells (RGCs); settings: 2 WPI
cGAS = cGAS expression in retina/RGCs after optic nerve injury (western blot, immunostaining); format: in vivo, mouse
[3] = Ptpn2 cKO plus IFNγ after optic nerve injury

COc1ccc(C[C@H]2NC[C@H](O)[C@H]2OC(C)=O)cc1 [anisomycin]
reduction of the IFNγ signal (IFNγ): over 50%

Nc1ncnc2c1ncn2[C@@H]1O[C@@H]2COP(=O)([S-])O[C@@H]3[C@H](O)[C@@H](COP([O-])(=S)O[C@H]2[C@H]1O)O[C@H]3n1cnc2c(N)ncnc21.[Na+].[Na+] (stereo partly shown) [ADU-S100, reference compound]
axon regeneration after optic nerve crush ([1]; mouse, in vivo): regenerative effect in a dose-dependent manner
axon elongation after in-vitro axotomy (embryonic DRG neurons): enhanced axon elongation

Nc1nc2c(ncn2[C@@H]2O[C@@H]3COP(=O)(O)O[C@H]4[C@@H](O)[C@H](n5cnc6c(N)ncnc65)O[C@@H]4COP(=O)(O)O[C@@H]2[C@@H]3O)c(=O)[nH]1 [2′,3′-cGAMP, reference compound]
axon regeneration after optic nerve crush ([1]; mouse, in vivo): stimulated significant axon regeneration
cGAMP-induced regeneration ([1]; mouse, in vivo): suppressed
cGAMP-stimulated axon regeneration ([1]; mouse, in vivo): almost completely blocked
growth effect of cGAMP on DRG culture (DRG neurons; Sting deletion (Sting KO mice)): completely abolished
axon elongation / axon growth in DRG culture (DRG neurons): enhanced the axon elongation

CCCCC1(C2CCCC2)Cc2cc(OCCCC(=O)O)c(Cl)c(Cl)c2C1=O (stereo not shown) [DCPIB]
effect on the growth effect induced by cGAMP (DRG neurons): inhibit the growth effect induced by cGAMP

CCc1ccc(C(=O)NCCCCC(NC(=O)C(Cc2ccc(C(F)(F)P(=O)(O)O)cc2)NC(=O)C(Cc2ccccc2)NC(=O)COC2CC(C)CCC2C(C)C)C(N)=O)cc1 (stereo not shown) [PTPN2 inhibitor, reference compound]
in-vitro screening on inhibitors of mouse phosphatases (axon elongation) (adult DRG neurons): identified from the tyrosine phosphatase inhibitor screening
axon regeneration after optic nerve crush ([1]; mouse, in vivo): elicited modest axon regeneration

IFNγ: type II interferon, recombinant protein (Prospec)
p-STAT1 in RGCs (p-STAT1; Ptpn2 KO group with IFNγ): enhanced up to 5 dpc
p-STAT1 in retina lysates by western blotting (p-STAT1; [3]): most elevated among all groups
p-STAT1 accumulation in the nuclei of RGCs (p-STAT1; 1 dpc): induced p-STAT1 accumulation
p-STAT1 accumulation in the nuclei of RGCs (p-STAT1; 3 dpc): not at 3 dpc
phosphorylated STAT3 (p-STAT3) in RGCs (p-STAT3): also activated
optic nerve regeneration by IFNγ stimulation ([1]; Cgas or Sting KO mice with AAV-shRNA-Ptpn2, 0.1 μg/μL IFNγ, 2 weeks after injury): almost completely blocked
axons found at the optic chiasm, vs Pten/Socs3 mutant plus vehicle ([1]; Pten/Socs3/Ptpn2 triple KO with AAV-CNTF, IFNγ at time of injury, four weeks): about 3 fold
axon regeneration, exogenous ligand screen ([1]; Ptpn2 KO mice, protein injected into the eye at time of optic nerve crush, two weeks, IFNγ 0.1 μg/μL, leptin 2, insulin 2, EGF 1, bNGF 1 μg/μL): significantly boosted axon regeneration
axon regeneration, IFNγ plus Ptpn2 KO ([1]; Ptpn2 cKO mice, intravitreal IFNγ immediately after optic nerve injury (repeat with more controls)): elicited robust regeneration
axon regrowth, IFNγ alone ([1]; WT mice, intravitreal IFNγ immediately after optic nerve injury): induced modest regrowth
axon regeneration, triple KO plus IFNγ vs Pten/Socs3 mutant plus vehicle ([1]; mouse, in vivo): very significant increase in axon regeneration
RGC survival rates ([2]; WT or Ptpn2 cKO with PBS or IFNγ): comparable among the four groups
RGC survival ([2]; WT, Cgas, Sting or Mavs KO mice with AAV-shRNA-Ptpn2 and IFNγ): comparable among all groups
cGAS in RGCs by immunostaining (cGAS; Ptpn2 cKO in addition to IFNγ, 2 days after injury): upregulated
cGAS in retina by western blotting (cGAS; [3]): detectable only in mouse retinas with Ptpn2 cKO plus IFNγ

CC1(C)[C@@H](OC(=O)CCC(=O)O)CC[C@]2(C)[C@H]3C(=O)C=C4[C@@H]5C[C@@](C)(C(=O)O)CC[C@]5(C)CC[C@@]4(C)[C@]3(C)CC[C@@H]12 [CBX]
effect on the growth effect induced by cGAMP (DRG neurons): inhibit the growth effect induced by cGAMP

Cc1ccc2c(=O)c3cccc(CC(=O)O)c3oc2c1C [DMXAA, 5,6-Dimethylxanthenone-4-acetic acid]
axon elongation / axon growth in DRG culture (DRG neurons): enhanced the axon elongation
